Like-named read-outs stand apart in the source and are kept apart here. Peptide text beside a SMILES is read from it.
Assays:
[1] = target: T1, AICAR Tfase activity of avian ATIC (Gallus gallus, UniProt P31335); experiment: AICAR Tfase inhibition assay
T1 sequence (P31335 1-593): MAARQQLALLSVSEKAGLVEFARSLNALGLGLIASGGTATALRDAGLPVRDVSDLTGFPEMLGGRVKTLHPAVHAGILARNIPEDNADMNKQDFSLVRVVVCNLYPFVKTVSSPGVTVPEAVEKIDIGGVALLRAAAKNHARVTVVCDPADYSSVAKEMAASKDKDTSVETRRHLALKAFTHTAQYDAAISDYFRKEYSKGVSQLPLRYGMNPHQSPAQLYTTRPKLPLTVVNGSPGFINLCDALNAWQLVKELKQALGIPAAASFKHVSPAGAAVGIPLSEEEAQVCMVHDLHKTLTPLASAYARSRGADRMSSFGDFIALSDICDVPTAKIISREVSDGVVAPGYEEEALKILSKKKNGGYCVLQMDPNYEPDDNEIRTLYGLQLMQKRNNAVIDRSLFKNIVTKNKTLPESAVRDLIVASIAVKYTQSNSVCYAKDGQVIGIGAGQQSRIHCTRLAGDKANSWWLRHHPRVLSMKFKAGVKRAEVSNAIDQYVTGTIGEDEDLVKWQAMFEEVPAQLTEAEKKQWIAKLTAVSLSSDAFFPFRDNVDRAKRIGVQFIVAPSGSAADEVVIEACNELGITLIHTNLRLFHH

human ATIC = human ATIC (Homo sapiens, UniProt P31939); experiment: AICAR Tfase inhibition assay with human ATIC; format: biochemical
human ATIC, sequence (P31939 whole entry): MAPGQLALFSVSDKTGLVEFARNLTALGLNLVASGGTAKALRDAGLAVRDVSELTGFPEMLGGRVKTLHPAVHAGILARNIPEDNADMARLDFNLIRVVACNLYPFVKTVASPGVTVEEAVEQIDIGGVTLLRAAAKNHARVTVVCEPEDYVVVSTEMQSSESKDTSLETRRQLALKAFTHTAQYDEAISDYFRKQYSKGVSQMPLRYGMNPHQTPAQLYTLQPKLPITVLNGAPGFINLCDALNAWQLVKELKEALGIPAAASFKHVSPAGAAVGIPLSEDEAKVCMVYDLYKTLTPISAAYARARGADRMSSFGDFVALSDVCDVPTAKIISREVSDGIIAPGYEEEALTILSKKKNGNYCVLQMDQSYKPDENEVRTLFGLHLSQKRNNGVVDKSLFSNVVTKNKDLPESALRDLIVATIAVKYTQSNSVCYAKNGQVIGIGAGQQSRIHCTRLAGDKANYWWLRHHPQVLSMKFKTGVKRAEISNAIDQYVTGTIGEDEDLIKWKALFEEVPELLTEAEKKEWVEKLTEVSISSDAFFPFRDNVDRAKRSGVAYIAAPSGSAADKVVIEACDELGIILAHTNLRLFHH

MCF-7 cells [2] = experiment: MTS-based cell proliferation; conditions: 48 hours after dosing
human ATIC homodimer = human ATIC homodimer (Homo sapiens, UniProt P31939); experiment: Size exclusion chromatography of ATIC monomer/dimer ratio; format: binding; conditions: 50 μM ATIC treated with 10 μM compound
human ATIC homodimer, sequence (P31939 whole entry): as above

MCF-7 cells [3] = experiment: Live-cell imaging; format: cell-based; conditions: MCF-7, 250 μM
[4] = target: T2, AICAR Tfase activity of ATIC (Gallus gallus, UniProt P31335); experiment: AICAR Tfase inhibition in the presence of BSA; format: biochemical; conditions: compound at 10 μM and 50 μM; 1 mg/mL and 10 mg/mL BSA
T2 sequence (P31335 1-593): T1 sequence (P31335 1-593)

Compound: CC(C)[C@@H]1NC(=O)[C@H](CC(N)=O)NC(=O)[C@H](Cc2ccccc2)NC(=O)[C@H](Cc2ccc(O)cc2)NC(=O)[C@H](CCCNC(=N)N)NC(=O)[C@H](C)NC1=O [Compound 2, cyclo-ARYFNV] (cyclo(ARYFNV))
- Ki [1]: 651 ± 25 µM

Compound: C[C@@H]1NC(=O)[C@H](CC(N)=O)NC(=O)[C@H](Cc2ccccc2)NC(=O)[C@H](Cc2ccc(O)cc2)NC(=O)[C@H](CCCNC(=N)N)NC(=O)[C@H](CS)NC1=O [Compound 7, cyclo-CRYFNA] (cyclo(ACRYFN))
- Ki [1]: 252 ± 22 µM

Compound: CC(C)[C@@H]1NC(=O)[C@H](C)NC(=O)[C@H](Cc2ccccc2)NC(=O)[C@H](Cc2ccc(O)cc2)NC(=O)[C@H](CCCNC(=N)N)NC(=O)[C@H](CS)NC1=O [Compound 6, cyclo-CRYFAV] (cyclo(AVCRYF))
- Ki [1]: 368 ± 29 µM

Compound: CC(C)[C@@H]1NC(=O)[C@H](CC(N)=O)NC(=O)[C@H](Cc2ccccc2)NC(=O)[C@H](C)NC(=O)[C@H](CCCNC(=N)N)NC(=O)[C@H](CS)NC1=O [Compound 4, cyclo-CRAFNV] (cyclo(AFNVCR))
- Ki [1]: > 2500 µM

Compound: CC(C)[C@@H]1NC(=O)[C@H](CC(N)=O)NC(=O)[C@H](Cc2ccccc2)NC(=O)[C@H](Cc2ccc(O)cc2)NC(=O)[C@H](CCCNC(=N)N)NC(=O)[C@H](CS)NC1=O [Compound 1, cyclo-CRYFNV] (cyclo(RYFNVC))
- Ki with human ATIC compared to the avian enzyme (human ATIC): same Ki (within error)

Compound: CCN(CC)C(=O)[C@H](Cc1ccc([N+](=O)[O-])cc1)NC(=O)[C@H](CCCNC(=N)N)NC(C)=O [Compound 14, Acetyl-Arg-CONH-Phe(4-NO2)-L-Diethylamide]
- inhibition of viability (MCF-7 cells [2]; MCF-7, 500 μM (maximum dose)): 40%
- effect on viability (MCF-7 cells [2]; MCF-7, 100, 250 or 500 μM): dose-dependent reduction in viability
- Ki with human ATIC compared to the avian enzyme (human ATIC): same Ki (within error)
- ATIC species observed by size exclusion chromatography (human ATIC homodimer): presence of monomeric ATIC
- mechanism of effect on cell numbers (MCF-7 cells [3]; analysis of videos over 72 hours): reduction in cell division rates, rather than an increase in cell death
- reduction in proliferation compared to control-treated cells (MCF-7 cells [3]; time-lapse microscopy over 72 hours): 35%
- AICAR Tfase inhibition in presence of BSA [4]: continued to inhibit the reaction to a similar extent as observed in the absence of BSA
- Ki ([1]; Table 2, RY analogues, avian ATIC, 25 °C): 0.685 ± 0.035 µM
- fold improvement in activity compared to capped RY dimer 8 ([1]; from Ki values of Table 2): 120 fold

Compound: linear-CRYFNV [reference compound]
- fold loss of activity compared to cyclo-CRYFNV ([1]; from Ki values): 8 fold

Compound: CC(C)[C@@H]1NC(=O)[C@H](CC(N)=O)NC(=O)[C@H](C)NC(=O)[C@H](Cc2ccc(O)cc2)NC(=O)[C@H](CCCNC(=N)N)NC(=O)[C@H](CS)NC1=O [Compound 5, cyclo-CRYANV] (cyclo(ANVCRY))
- Ki [1]: 38 ± 5 µM

Compound: CC(C)[C@@H]1NC(=O)[C@H](CC(N)=O)NC(=O)[C@H](Cc2ccccc2)NC(=O)[C@H](Cc2ccc(O)cc2)NC(=O)[C@H](C)NC(=O)[C@H](CS)NC1=O [Compound 3, cyclo-CAYFNV] (cyclo(AYFNVC))
- Ki [1]: > 2500 µM

Source: publication PMC3517147 (Chembiochem : a European journal of chemical biology, 2012)
